Columns and labels:
[1] = In vivo effects of ritonavir on the oral pharmacokinetics of Compound nr. 47 in rat; details: male and female Sprague-Dawley rats, single oral 10 mg/kg Compound nr. 47, boosting with 10 mg/kg ritonavir about 30 minutes before, plasma
Procedure: Oral pharmacokinetics of Compound nr. 47 in male and female Sprague-Dawley rats after a single dose at 10 mg/kg, using a formulation in 50% PEG400/water and the influence of “boosting” with 10 mg/kg ritonavir were investigated.
Four male and four female Sprague-Dawley (SD)-rats (approx. body weight 200-250 g) were randomly divided into 2 groups of 2 males and females each (boosted and non-boosted) based on body weight. […] The animals were fasted shortly before the trial. Drinking water remained available ad libitum.
Rats from the non-boosted group received a single oral 10 mg/kg dose of Compound nr. 47, formulated as a 3 mg/ml 50% PEG400/water at pH 8. Rats from the boosted group received a single oral dose of ritonavir, about 30 minutes before single oral dosing with 10 mg/kg of Compound nr. 47. The drug formulations were administered by oral gavage.
From each rat, a 0.5 ml blood sample was collected at 0.5 h, 1 h, 2 h, 4 h and 8 h after dosing. Plasma concentrations were determined using HPLC-MS. Results are shown in the table 2 below, expressed as fold change in pharmacokinetic parameter of the boosted group as compared to the non-boosted group.

[2] = tested on: HCV type 1b replicon in Huh-7 luc/neo (Huh-Luc) cells; test: Replicon assay: inhibition of HCV RNA replication in Huh-Luc cells (luciferase); type: cell-based; details: Hepatitis C virus, Huh-7, 72 h, luciferase activity, incubation of three days
Procedure: The in vitro antiviral activity against HCV of the compounds of formula (I) was tested in a cellular HCV replicon system based on Lohmann et al. (1999) Science 285:110-113, with the further modifications described by Krieger et al. (2001) Journal of Virology 75: 4614-4624, which is further exemplified in the examples section. This model, while not a complete infection model for HCV, is widely accepted as the most robust and efficient model of autonomous HCV RNA replication currently available. […] It will be appreciated that it is important to distinguish between compounds that specifically interfere with HCV functions from those that exert cytotoxic or cytostatic effects in the HCV replicon model, and as a consequence cause a decrease in HCV RNA or linked reporter enzyme concentration. Assays are known in the field for the evaluation of cellular cytotoxicity based for example on the activity of mitochondrial enzymes using fluorogenic redox dyes such as resazurin. Furthermore, cellular counter screens exist for the evaluation of non-selective inhibition of linked reporter gene activity, such as firefly luciferase. Appropriate cell types can be equipped by stable transfection with a luciferase reporter gene whose expression is dependent on a constitutively active gene promoter, and such cells can be used as a counter-screen to eliminate non-selective inhibitors.
The compounds of formula (I) were examined for activity in the inhibition of HCV RNA replication in a cellular assay. […] The cellular assay was based on a bicistronic expression construct, as described by Lohmann et al. (1999) Science vol. 285 pp. 110-113 with modifications described by Krieger et al. (2001) Journal of Virology 75: 4614-4624, in a multi-target screening strategy. In essence, the method was as follows.
The assay utilized the stably transfected cell line Huh-7 luc/neo (hereafter referred to as Huh-Luc). This cell line harbors an RNA encoding a bicistronic expression construct comprising the wild type NS3-NS5B regions of HCV type 1b translated from an Internal Ribosome Entry Site (IRES) from encephalomyocarditis virus (EMCV), preceded by a reporter portion (FfL-luciferase), and a selectable marker portion (neo^R, neomycine phosphotransferase). The construct is bordered by 5′ and 3′ NTRs (non-translated regions) from HCV type 1b. Continued culture of the replicon cells in the presence of G418 (neo^R) is dependent on the replication of the HCV RNA. The stably transfected replicon cells that express HCV RNA, which replicates autonomously and to high levels, encoding inter alia luciferase, are used for screening the antiviral compounds.
The replicon cells were plated in 384 well plates in the presence of the test and control compounds which were added in various concentrations. Following an incubation of three days, HCV replication was measured by assaying luciferase activity (using standard luciferase assay substrates and reagents and a Perkin Elmer ViewLux™ ultraHTS microplate imager). Replicon cells in the control cultures have high luciferase expression in the absence of any inhibitor. The inhibitory activity of the compound on luciferase activity was monitored on the Huh-Luc cells, enabling a dose-response curve for each test compound.

HCV NS3/4A protease = HCV NS3/4A protease (Hepatitis C virus genotype 1a (isolate H77) (HCV), UniProt P27958); test: Inhibition assay (enzymatic assay) of full-length NS3 protease with NS4A cofactor; type: biochemical
Procedure: [Landro, 1997 #Biochem 36 9340-9348]. […] The solutions were stored at −20° C. between measurements.
[Liu, 1999 Analytical Biochemistry 267 331-335].

HCV NS3/4A protease, sequence (P27958 1027-1657): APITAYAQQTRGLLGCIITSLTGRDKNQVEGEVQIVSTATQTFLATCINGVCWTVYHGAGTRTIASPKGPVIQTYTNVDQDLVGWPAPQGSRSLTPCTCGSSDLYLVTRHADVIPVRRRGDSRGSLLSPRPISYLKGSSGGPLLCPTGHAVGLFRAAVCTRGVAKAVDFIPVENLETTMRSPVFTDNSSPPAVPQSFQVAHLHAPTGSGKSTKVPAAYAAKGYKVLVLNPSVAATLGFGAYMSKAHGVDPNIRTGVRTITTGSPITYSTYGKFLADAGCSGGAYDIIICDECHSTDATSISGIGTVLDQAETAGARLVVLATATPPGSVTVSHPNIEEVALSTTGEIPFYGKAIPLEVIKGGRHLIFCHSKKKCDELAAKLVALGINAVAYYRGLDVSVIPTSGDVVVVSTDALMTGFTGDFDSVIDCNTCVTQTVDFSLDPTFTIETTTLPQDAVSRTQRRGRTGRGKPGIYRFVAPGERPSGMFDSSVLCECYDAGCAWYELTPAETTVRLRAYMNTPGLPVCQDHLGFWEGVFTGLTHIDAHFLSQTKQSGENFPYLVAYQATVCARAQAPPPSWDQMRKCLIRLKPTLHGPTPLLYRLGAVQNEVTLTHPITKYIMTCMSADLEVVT

In the case of `COc1ccc2c(O[C@@H]3C[C@H]4C(=O)N[C@]5(C(=O)NS(=O)(=O)C6CC6)C[C@H]5/C=C\CCCCN(C)C(=O)[C@@H]4C3)cc(-c3nc(C(C)C)cs3)nc2c1C` [Compound 47, N-[17-[2-(4-isopropylthiazole-2-yl)-7-methoxy-8-methylquinolin-4-yloxy]-13-methyl-2,14-dioxo-3,13-diazatricyclo[13.3.0.0^4,6]octadec-7-ene-4-carbonyl](cyclopropyl)sulfonamide], the “Cmax, fold change of the boosted group as compared to the non-boosted group” value [1] is reported as 2.2 fold change, the EC50 [2] is reported as 0.00618 µM and the Ki (HCV NS3/4A protease) is reported as 0.5 nM.

Reference: US8741926B2, “Macrocyclic inhibitors of hepatitis C virus” (Tibotec Pharmaceuticals Ltd., priority 2005, dated 2014)
